The values that follow come from US20230406833A1, “HERBICIDAL MALONAMIDES” (BASF SE, priority 2020, published 2023).

What all share (type): in vivo
Test [1] concerns Setaria viridis (SETVI). Kind of test: greenhouse post-emergence herbicidal test. The note with it: 0.0625 kg/ha, scale from 0 to 100. From the text: (§1) The culture containers used were plastic flowerpots containing loamy sand with approximately 3.0% of humus as the substrate. The seeds of the test plants were sown separately for each species.
(§2) For the pre-emergence treatment, the active ingredients, which had been suspended or emulsified in water, were applied directly after sowing by means of finely distributing nozzles. The containers were irrigated gently to promote germination and growth and subsequently covered with transparent plastic hoods until the test plants had rooted. This cover caused uniform germination of the test plants, unless this had been impaired by the active ingredients. For the post-emergence treatment, the test plants were first grown to a height of 3 to 15 cm, depending on the plant habit, and only then treated with the active ingredients which had been suspended or emulsified in water. For this purpose, the test plants were either shown directly and grown in the same containers, or they were first grown separately as seedlings and transplanted into the test containers a few days prior to treatment.
(§3) Depending on the species, the test plants were kept at 10-25° C. or 20-35° C., respectively. The test period extended over 2 to 4 weeks. During this time, the test plants were tended, and their response to the individual treatments was evaluated.
(§4) Evaluation was carried out using a scale from 0 to 100. 100 means no emergence of the test plants, or complete destruction of at least the aerial moieties, and 0 means no damage, or normal course of growth. A good herbicidal activity is given at values of 70 to <90 and a very good herbicidal activity is given at values of 90 to 100.
(§5) The test plants used in the greenhouse experiments were of the following species: […]

Test [2] deals with Avena fatua (AVEFA). Kind of test: greenhouse post-emergence herbicidal test. The note with it: for pest or weed control at 250 g/ha: 0.250 kg/ha; for pest or weed control at 500 g/ha: 0.500 kg/ha.
Text: as §1, §2, §3, §4, §5

The subject of test [3] is Apera spica-venti (APESV). Nature of the test: greenhouse pre-emergence herbicidal test. The following applies: scale from 0 to 100, read-out: herbicidal activity against APESV; for pest or weed control at 250 g/ha: 0.250 kg/ha; for pest or weed control at 500 g/ha: 0.500 kg/ha.
Text: as §1, §2, §3, §4, §5

Test [4] relates to Lolium multiflorum (LOLMU). Nature of the test: greenhouse pre-emergence herbicidal test. The following applies: scale from 0 to 100.
Text: as §1, §2, §3, §4, §5

In test [5] the test system is Abutilon theophrasti (ABUTH). Kind of test: greenhouse pre-emergence herbicidal test. The following applies: 0.500 kg/ha, scale from 0 to 100.
Text: as §1, §2, §3, §4, §5

The subject of test [6] is Amaranthus retroflexus (AMARE). Nature of the test: greenhouse post-emergence herbicidal test. The note with it: 0.125 kg/ha, scale from 0 to 100.
Text: as §1, §2, §3, §4, §5

In test [7] the test system is Alopercurus myosuroides (ALOMY). Kind of test: greenhouse pre-emergence herbicidal test. The note with it: scale from 0 to 100.
Text: as §1, §2, §3, §4, §5

The test system of test [8] is Echinocloa crus-galli (ECHCG). Kind of test: greenhouse post-emergence herbicidal test. The following applies: scale from 0 to 100.
Text: as §1, §2, §3, §4, §5

The subject of test [9] is Setaria faberi (SETFA). Kind of test: greenhouse pre-emergence herbicidal test. The following applies: scale from 0 to 100.
Text: as §1, §2, §3, §4, §5

For test [10], the system named is Echinocloa crus-galli (ECHCG). Nature of the test: greenhouse pre-emergence herbicidal test. The following applies: 0.500 kg/ha, scale from 0 to 100.
Text: as §1, §2, §3, §4, §5

Test [11] relates to Setaria viridis (SETVI). Kind of test: greenhouse pre-emergence herbicidal test. The following applies: 0.250 kg/ha, scale from 0 to 100.
Text: as §1, §2, §3, §4, §5

In test [12] the test system is Abutilon theophrasti (ABUTH). Kind of test: greenhouse post-emergence herbicidal test. The following applies: 1.000 kg/ha, scale from 0 to 100.
Text: as §1, §2, §3, §4, §5

Test [13] has as its system Lolium multiflorum (LOLMU). Nature of the test: greenhouse post-emergence herbicidal test. The following applies: 0.125 kg/ha, scale from 0 to 100.
Text: as §1, §2, §3, §4, §5

Test [14] relates to Alopercurus myosuroides (ALOMY). Kind of test: greenhouse post-emergence herbicidal test. The note with it: 0.125 kg/ha, scale from 0 to 100.
Text: as §1, §2, §3, §4, §5

Setting [15] is: Avena fatua, scale from 0 to 100, read-out: herbicidal activity against AVEFA.

In the case of `O=C(O)CCCNC(=O)C1(C(=O)Nc2cc(F)cc(F)c2)CCO1` (stereo not drawn) [I.126], in test [1], the “herbicidal activity against SETVI” value was “good (A good herbicidal activity is given at values of 70 to <90)”.

For the compound `COC(=O)[C@@H]1C=C[C@H](NC(=O)C2(C(=O)Nc3cc(F)cc(F)c3)CCO2)C1` (stereo partly drawn) [Compound I1, methyl (1S,4R)-4-[[2-[(3,5-difluorophenyl)carbamoyl]oxetane-2-carbonyl]amino]cyclopent-2-ene-1-carboxylate], the pest or weed control at 250 g/ha in [2] (setting [15]) and in test [3] was 90 to 100% throughout.

On to `COC(=O)C[C@H](C)NC(=O)C1(C(=O)Nc2cc(Cl)cc(Cl)c2)CCCO1` (stereo partly drawn) [I.17, methyl (3S)-3-[[2-[(3,5-dichlorophenyl)carbamoyl]tetrahydrofuran-2-carbonyl]amino]butanoate], for which the pest or weed control at 500 g/ha in [2] (setting [15]) was in the range of 70 to 90%; in test [3], 90 to 100%.

Regarding `COC(=O)C[C@H](C)NC(=O)C1(C(=O)Nc2cc(F)cc(F)c2)CCO1` (stereo partly drawn) [Compound I2, methyl (3S)-3-[[2-[(3,5-difluorophenyl)carbamoyl]oxetane-2-carbonyl]amino]butanoate], in test [3], the pest or weed control at 500 g/ha lay in the range of 90 to 100%.

As for `COC(=O)CCCNC(=O)C1(C(=O)Nc2cc(Cl)cc(Cl)c2)COCO1` (stereo not drawn) [I.23, methyl 4-[[4-[(3,5-dichlorophenyl)carbamoyl]-1,3-dioxolane-4-carbonyl]amino]butanoate], the pest or weed control at 500 g/ha in test [2] (setting [15]) was in the range of 70 to 90%.

Regarding `Cn1nnnc1NC(=O)C1(C(=O)Nc2cc(F)c(F)c(F)c2)CCO1` (racemic) [I.5], the “herbicidal activity against LOLMU” value in test [4] (0.250 kg/ha) is “very good (a very good herbicidal activity is given at values of 90 to 100)”.

For the compound `COC(=O)[C@@H]1C=C[C@H](NC(=O)C2(C(=O)Nc3cc(Cl)cc(Cl)c3)CCO2)C1` (stereo partly drawn) [Compound I6, methyl (1S,4R)-4-[[2-[(3,5-dichlorophenyl)carbamoyl]oxetane-2-carbonyl]amino]cyclopent-2-ene-1-carboxylate], the pest or weed control at 500 g/ha in test [3] was 90 to 100%. Also, the “herbicidal activity against ABUTH” value in test [5] was “very good (a very good herbicidal activity is given at values of 90 to 100)”.

As to `C=C1CCOC1(C(=O)Nc1cc(Cl)cc(Cl)c1)C(=O)NC(C)CC(=O)OC` (stereo not drawn) [I.122], the “herbicidal activity against AMARE” value in [6] is given as “good (A good herbicidal activity is given at values of 70 to <90)”.

Consider `COC(=O)[C@@H]1C=C[C@H](NC(=O)C2(C(=O)Nc3cc(Cl)cc(Cl)c3)OCCS2)C1` (stereo partly drawn) [I.20, methyl (1S,4R)-4-[[2-[(3,5-dichlorophenyl)carbamoyl]-1,3-oxathiolane-2-carbonyl]amino]cyclopent-2-ene-1-carboxylate], for which the pest or weed control at 250 g/ha in test [2] (setting [15]) lay within 90 to 100%; in test [3] it was 70 to 90%.

`COC(=O)[C@@H]1C=C[C@H](NC(=O)C2(C(=O)Nc3cc(Cl)cc(Cl)c3)C=CCO2)C1` (stereo partly drawn) [Compound I24, methyl (1S,4R)-4-[[5-[(3,5-dichlorophenyl)carbamoyl]-2H-furan-5-carbonyl]amino]cyclopent-2-ene-1-carboxylate]: the pest or weed control at 250 g/ha in test [2] (setting [15]) lay within 90 to 100%. Also, the “herbicidal activity against ALOMY” value in test [7] (0.250 kg/ha) is given as “very good (a very good herbicidal activity is given at values of 90 to 100)”.

`COC(=O)CCCNC(=O)C1(C(=O)Nc2cc(Cl)cc(Cl)c2)CCCO1` (stereo not drawn) [Compound I18, methyl 4-[[2-[(3,5-dichlorophenyl)carbamoyl]tetrahydrofuran-2-carbonyl]amino]butanoate]: the pest or weed control at 500 g/ha in [2] (setting [15]) fell in the range of 70 to 90%; in [3] it was 90 to 100%.

Consider `COC(=O)C1C=CC(NC(=O)C2(C(=O)Nc3cc(Cl)cc(Cl)c3)OC2(C)C)C1` (mixture of isomers) [I.220], for which the “herbicidal activity against ECHCG” value in [8] (0.500 kg/ha) is listed as “good (A good herbicidal activity is given at values of 70 to <90)”.

As to `COC(=O)[C@@H]1CC[C@H](NC(=O)C2(C(=O)Nc3cc(Cl)cc(Cl)c3)CCCO2)C1` (stereo partly drawn) [Compound I15], in test [9] (0.500 kg/ha), the “herbicidal activity against SETFA” value is reported as “good (A good herbicidal activity is given at values of 70 to <90)”. Besides, in [10], the “herbicidal activity against ECHCG” value is given as “good (A good herbicidal activity is given at values of 70 to <90)”.

For `CC(C)OC(=O)C1C=CC(NC(=O)C2(C(=O)Nc3cc(F)c(F)c(F)c3)CCO2)C1` (stereo not drawn) [I.133], the “herbicidal activity against SETFA” value in test [9] (0.13128 kg/ha) is “very good (a very good herbicidal activity is given at values of 90 to 100)”. Further, the “herbicidal activity against LOLMU” value in test [4] (0.13128 kg/ha) was “very good (a very good herbicidal activity is given at values of 90 to 100)”. Moreover, in test [7] (0.13128 kg/ha), the “herbicidal activity against ALOMY” value is given as “very good (a very good herbicidal activity is given at values of 90 to 100)”.

Take `CC(C)OC(=O)C1C=CC(NC(=O)C2(C(=O)Nc3cccc(OC(F)(F)F)c3)CCO2)C1` (stereo not drawn) [I.134]: the “herbicidal activity against ECHCG” value in [8] (0.0625 kg/ha) was “very good (a very good herbicidal activity is given at values of 90 to 100)”.

Turning to `O=C([O-])C1C=CC(NC(=O)C2(C(=O)Nc3cc(Cl)cc(Cl)c3)C=CCO2)C1.[Na+]` (mixture of isomers) [I.201], the “herbicidal activity against SETVI” value in [11] is “good (A good herbicidal activity is given at values of 70 to <90)”.

As to `CS(=O)(=O)CCOC(=O)CCCNC(=O)C1(C(=O)Nc2cc(F)cc(F)c2)CCO1` (stereo not drawn) [I.130], in test [2] (0.0625 kg/ha, scale from 0 to 100), the “herbicidal activity against AVEFA” value is reported as “good (A good herbicidal activity is given at values of 70 to <90)”.

In the case of `COC(=O)C[C@H](C)NC(=O)C1(C(=O)Nc2cc(Cl)cc(Cl)c2)CCO1` (stereo partly drawn) [Compound I7, methyl (3S)-3-[[2-[(3,5-dichlorophenyl)carbamoyl]oxetane-2-carbonyl]amino]butanoate], the pest or weed control at 500 g/ha in test [2] (setting [15]) and in [3] was 90 to 100% in each case.

As to `COC(=O)CC(C)NC(=O)C1(C(=O)Nc2cc(Cl)cc(Cl)c2)C=CCO1` (mixture of isomers) [I.25], the “herbicidal activity against LOLMU” value in test [4] (0.0625 kg/ha) is listed as “very good (a very good herbicidal activity is given at values of 90 to 100)”. Moreover, the “herbicidal activity against ALOMY” value in test [7] (0.0625 kg/ha) was “good (A good herbicidal activity is given at values of 70 to <90)”.

For the compound `COC(=O)CC(C)NC(=O)C1(C(=O)Nc2cc(Cl)cc(Cl)c2)OCCO1` (racemic) [I.19], in test [12], the “herbicidal activity against ABUTH” value is “good (A good herbicidal activity is given at values of 70 to <90)”.

Consider `COC(=O)CC[C@H](C)NC(=O)C1(C(=O)Nc2cc(Cl)cc(Cl)c2)OCCS1` (stereo partly drawn) [I.21, methyl (4S)-4-[[2-[(3,5-dichlorophenyl)carbamoyl]-1,3-oxathiolane-2-carbonyl]amino]pentanoate], for which the pest or weed control at 250 g/ha in test [2] (setting [15]) and in test [3] was 90 to 100% throughout.

On to `COC(=O)[C@@H]1C=C[C@H](NC(=O)C2(C(=O)Nc3cc(Cl)cc(Cl)c3)C=CCO2)C1` (stereo partly drawn) [Compound I183, methyl (1S,4R)-4-[[5-[(3,5-dichlorophenyl)carbamoyl]-2H-furan-5-carbonyl]amino]cyclopent-2-ene-1-carboxylate], for which, in test [3] (0.125 kg/ha), the pest or weed control at 125 g/ha is 70 to 90%.

`COC(=O)[C@@H]1C=C[C@H](NC(=O)C2(C(=O)Nc3cc(Cl)cc(Cl)c3)CCCO2)C1` (stereo partly drawn) [Compound I16, methyl (1S,4R)-4-[[2-[(3,5-dichlorophenyl)carbamoyl]tetrahydrofuran-2-carbonyl]amino]cyclopent-2-ene-1-carboxylate]: the pest or weed control at 500 g/ha in [3] fell in the range of 90 to 100%.

Take `COC(=O)[C@@H]1C=C[C@H](NC(=O)C2(C(=O)Nc3cc(Cl)cc(Cl)c3)C=CCO2)C1` (stereo partly drawn) [Compound I184, methyl (1S,4R)-4-[[5-[(3,5-dichlorophenyl)carbamoyl]-2H-furan-5-carbonyl]amino]cyclopent-2-ene-1-carboxylate]: the pest or weed control at 250 g/ha in test [3] lay in the range of 90 to 100%.

For `COC(=O)C[C@H](C)NC(=O)C1(C(=O)Nc2cc(Cl)cc(Cl)c2)COCO1` (stereo partly drawn) [I.22], the pest or weed control at 125 g/ha in test [2] (Avena fatua, 0.125 kg/ha, scale from 0 to 100, read-out: herbicidal activity against AVEFA) fell in the range of 90 to 100%. Further, in test [13], the “herbicidal activity against LOLMU” value is listed as “very good (a very good herbicidal activity is given at values of 90 to 100)”. For the same compound, the “herbicidal activity against ALOMY” value in test [14] is listed as “very good (a very good herbicidal activity is given at values of 90 to 100)”.
